# Results reported in patent US20020037544A1 (priority 1998, published 2002).
# Entries after “also recorded” stand apart in the source; their conditions may differ.
# B1: P/GF: placenta derived growth factor, a VEGFR-1-specific ligand, from R & D Systems (protein, UniProt P49763 19-221, looked up)
# Placenta growth factor: LPAVPPQQWALSAGNGSSEVEVVPFQEVWGRSYCRALERLVDVVSEYPSEVEHMFSPSCVSLLRCTGCCGDENLHCVPVETANVTMQLLKIRSGDRPSYVELTFSQHVRCECRHSPGRQSPDMPGDFRADAPSFLPPRRSLPMLFRMEWGCALTGSQSAVWPSSPVPEEIPRMHPGRNGKKQQRKPLREKMKPERCGDAVPRR
# Key:
# [1] = system: p120 and p100; assay: p120/p100 band shift (mobility shift) by SDS-PAGE and immunoblotting in HUVEC; assay type: cell-based, Human; conditions: for p120/p100 electrophoretic mobility (band shift): 10 μM histamine, 200 nM PDB
# Procedure: (§1) Human umbilical vein endothelial cells (HUVEC), pooled donors, were from BioWhitaker and cultured in EGM on collagen-coated plastic (Falcon) according to the supplier's instructions. The cells were cultured in medium in the presence of 100 U/ml penicillin and 100 μg/ml streptomycin at 37° C. in humidified air containing 10% CO2. Routinely, stocks were maintained in 75 cm^2 flasks and split at a 1:3 ratio when almost confluent. For experimental use, cells were seeded in appropriate plasticware such that confluence was established within 2-3 days and the cells were usually used 5-6 days after seeding. Prior to experimental use, confluent monolayers of cells were equilibrated in fresh medium for at least 2 hours prior to the start of the experiment. Compounds and agents that were only soluble in Me2SO were added to the culture medium of the cells in an equal volume of CO2-and temperature-equilibrated medium containing twice the finally required concentration of compound. […] Aqueous soluble agents were added at a 1:100 dilution directly to the cultures. In all cases, appropriate vehicle controls were performed and found to have no effect.
# (§2) Whole cell lysates were prepared by aspiration of culture medium and immediately replacing it with boiling hot Laemmli sample buffer (Laemmli, U. K. (1970) Cleavage of structural proteins during the assembly of the head of bacteriophage T4. Nature 227, 680-685) supplemented with 5 mM EDTA.Na4. The samples were collected and heated at 100° C. for 5 minutes. Proteins were resolved by gel electrophoresis using 8% acrylamide slab gels (Hoefer SE 600 system, 16 cm) and the buffers described (Laemmli, 1970, loc cit). Gels were run overnight at 55 V. The gels were then equilibrated for 30 minutes in buffer at 4° C. containing 48 mM Tris, 39 mM glycine, 0.03% SDS (w/v) and 20% methanol (v/v), and electrotransferred to nitrocellulose filters (Hybond ECL, Amersham) at 4° C. After Ponceau S staining, the filters were blocked in PBS containing 1% (w/v) BSA and 0.05% (v/v) Tween-20. The filters were then incubated with primary antibody, rinsed and immunoreactive bands were detected using appropriate HRP-conjugated secondary antibody and chemiluminescence (ECL, Amersham).
# Incubations were performed in triplicate and analyzed in parallel. The cells were extracted in Laemmli sample buffer and proteins were resolved by SDS-PAGE. […] Other experiments have shown that this is due to the loss of phosphate from the protein on serine and threonine residues.
# (§3) Cell extracts were prepared and p120 (◯) and p100 (●) were detected by immunoblotting following SDS-PAGE, FIG. 2, Panel A. The same filter was also probed with the antibody recognizing the activated forms of p42 and p44 MAP kinase (arrowheads), FIG. 2, Panel B. Equal loading of lanes was verified as in FIG. 1. […] After 60 minutes of incubation, the effect was less apparent (FIG. 2A). The kinetics paralleled those of the increase in amount of activated MAP kinase (FIG. 2B).
# (§4) Cell extracts were prepared and p120 (◯) and p100 (●) were detected by immunoblotting following SDS-PAGE, FIG. 3, Panel A. The same filter was also probed with the antibody recognizing the activated forms of p42 and p44 MAP kinase (arrowheads), FIG. 3, Panel B. Equal loading lanes was verified as in FIG. 1. […] The sensitivity of the increase in amount of activated MAP kinase paralleled that of the increase in p120/p100 mobility (FIG. 3B).
# To determine which receptor(s) were responsible for the p120/p100 shift, the effects of placenta derived growth factor (P/GF), a VEGFR-1-specific ligand, were examined.
# [2] = system: p42 and p44 MAP kinase; assay: immunoblot for activated forms of p42 and p44 MAP kinase in HUVEC; assay type: cell-based, Human; conditions: for amount of activated (phosphorylated) p42/p44 MAP kinase: 10 μM histamine, 200 nM phorbol 12,13 dibutyrate
# Procedure: as §1, §2
# To reveal other changes in VEGF-stimulated signalling processes, the filters were also probed with an antibody recognizing the activated forms of p42 and p44 MAP kinase.
# as §3, §4
# To determine which receptor(s) were responsible for the p120/p100 shift, the effects of placenta derived growth factor (P/GF), a VEGFR-1-specific ligand, were examined. Confluent monolayers of HUVECs were incubated for 5 minutes in the absence (lane labelled C) or presence of P/GF at 100 (P/GF100) or 1000 ng/ml (P/GF1000). […] In another experiment, the cells were preincubated for 30 minutes in the absence (−) or presence (+) of 5 μM of the VEGFR-2 inhibitor SU5416. […] In all cases, cell extracts were prepared and p120 (◯) and […] (●) were detected by immunoblotting following SDS-PAGE, FIGS. 4A and 4C. […]
# [3] = system: β-catenin, p120 and p100; assay: PY20 anti-phosphotyrosine immunoprecipitation and immunoblotting; assay type: cell-based, Human; conditions: HUVEC; for β-catenin and p120/p100 in phosphotyrosine (PY20) immunoprecipitates: 2.6 nM VEGF or 10 μM histamine 5 minutes, 100 μM pervanadate 15 minutes
# Procedure: For p120/p100-specific and phosphotyrosine (PY20) protein immunoprecipitations, the cells were lysed in boiling SDSSB (1% SDS, 25 mM Hepes, 2 mM EDTA, 0.1 M NaCl, 25 mM NaF, 1 mM vanadate, pH 7.6). The lysate was then collected, heated at 100° C. for 5 minutes, cooled and diluted with four volumes of ice-cold TX buffer that contained 2.9% instead of 1% Triton X-100. Immunoprecipitation was performed as described for TX buffer extractions.
# Some cells were treated for 15 minutes with 100 μM of the broad-spectrum tyrosine phosphatase inhibitor, pervanadate. Lysates of the cells were prepared by immediate extraction into a boiling solution of an SDS-based buffer containing kinase and phosphatase inhibitors, as described above.
# These extracts were then immunoprecipitated with antiphosphotyrosine antibody PY20 and analyzed by immunoblotting with PY20 (FIG. 7D).
# [4] = system: HUVEC; conditions: 2.6 nM VEGF, 5 minutes
# Procedure: Confluent monolayers of cells were fixed at room temperature for 15 minutes in 3% paraformaldehyde made up in PBS. Fixed cells were rinsed and then permeabilized by incubation with 0.5% Triton X-100 in PBS for 30 minutes. All antibodies were diluted in PBS containing 10% FCS, 0.1 M lysine, 0.3% Triton-X-100 and 0.02% azide. Incubation with antibody recognizing junction-associated protein was at 4° C. overnight followed by incubation with mouse or rabbit anti-phosphotyrosine antibody for 2 hours at room temperature. Secondary antibodies recognizing mouse and rabbit IgG conjugated to Cy3 or fluorescein, respectively, were applied together for 1 hour at room temperature. After rinsing, the samples were mounted under Citifluor and viewed with epifluorescence on a Nikon Eclipse E800 microscope. Photographs were taken using Kodak T-MAX film (400 ASA).
# After 5 minutes, the cells were fixed and then stained. […] All images were from similarly timed exposures. Bar, 20 μm.
# [5] = system: p120 and p100; conditions: HUVEC, 2.6 nM VEGF, 5 minutes
# [6] = system: cadherin/catenin complex; conditions: HUVEC, 2.6 nM VEGF, 5 minutes
# Procedure: For analysis of the cadherin and its association with catenins, extraction and immunoprecipitations were performed at 4° C. Cultures were briefly rinsed with ice-cold PBS and then lysed in TX buffer (1% (v/v) Triton X-100, 25 mM Hepes, 2 mM EDTA, 0.1 M NaCl, 25 mM NaF, 1 mM vanadate, pH 7.6 (adjusted with NaOH), 1 mM PMSF, 10 μg/ml soybean trypsin inhibitor, 0.1 U/ml α2-macroglobulin, 10 μg/ml leupeptin). The cells were extracted into lysis buffer for 10-15 minutes and then collected after scraping the dish. The lysates were centrifuged at 14,000×g for 20 minutes. The supernatant was precleared with protein A-Sepharose (Pharmacia) for 1 hour and then incubated with primary antibody for 1 hour followed by a further 1 hour with protein A-Sepharose together with rabbit anti-mouse antibodies. After five washes in lysis buffer, immune complexes were dissociated by addition of Laemmli sample buffer followed by heating at 100° C. for 5 minutes. Protein analysis was by SDS-PAGE and immunoblotting as described above.
# [7] = system: p120 and p100; conditions: HUVEC, 5 minutes; 2.6 nM VEGF, 10 μM histamine, 200 nM PDB
# Procedure: [^32P]Phosphate labelling was performed using Puck's Saline A (P-2917; Sigma, supplemented with 10 mM Hepes (Gibco), 2 mM glutamine (Gibco), 1 mM CaCl2, 1 mM MgSO4 and 0.2% (v/v) foetal calf serum. Cultures were rinsed twice with medium and then incubated with the same medium containing 100 μCi/ml of [^32P]phosphate. Labelling was for 2 hours at 37° C. in humidified air with ambient CO2.
# For phosphorylation analysis, cultures of HUVECs were labelled with [^32P]orthophosphate. After appropriate treatment, the cultures were lysed in boiling SDSSB and immunoprecipitated with the anti-p120/p100 antibody as described. For quantitation of [^32P]phosphate:protein, each immunoprecipitation was from protein extracted from ˜10 cm^2 of confluent culture. For the phosphoaminoacid analysis and Cleveland maps, protein from ˜60 cm^2 of confluent cells was used per immunoprecipitation. After separation by SDS-PAGE, for quantitation of [^32P]phosphate and p120/p100, protein was transferred to nitrocellulose and [^32P]phosphate incorporated into p120/p100 was detected by autoradiography. […] The area of filter containing p120 or p100 was detected by autoradiography, excised, and protein was acid hydrolysed to release phosphoaminoacids. These were then separated in two dimensions by high voltage electrophoresis at pH 1.9 and pH 3.5 and detected by autoradiography (Boyle et al., 1991). […]
# [8] = HUVEC preincubated 30 minutes with 5 μM, then 2.6 nM VEGF 5 minutes
# [9] = HUVEC preincubated 30 minutes with 5 μM, then 10 μM histamine 5 minutes
# [10] = HUVEC, 100 μM pervanadate, 15 minutes
# [11] = HUVEC, 5 minutes, P/GF at 100 or 1000 ng/ml
molecule,measurement,setting,value
"CCCC(=O)O[C@@H]1[C@@H](C)[C@@]2(O)[C@@H](C=C(CO)C[C@]3(O)C(=O)C(C)=C[C@@H]23)[C@@H]2C(C)(C)[C@]12OC(=O)CCC [PDB, Phorbol-12,13-dibutyrate, reference compound]",p120/p100 electrophoretic mobility (band shift),"[1]; HUVEC, 5 minutes, 2.6 nM VEGF",increased electrophoretic mobility
same,amount of activated (phosphorylated) p42/p44 MAP kinase,"[2]; HUVEC, 5 minutes, 2.6 nM VEGF",without effect
"NCCc1c[nH]cn1 [Histamine, reference compound]",β-catenin and p120/p100 in phosphotyrosine (PY20) immunoprecipitates,[3],did not reveal any hint
same,p120/p100 electrophoretic mobility (band shift),"[1]; HUVEC, 5 minutes, 2.6 nM VEGF",effective; also recorded: increased electrophoretic mobility; also recorded: produced effects
same,amount of activated (phosphorylated) p42/p44 MAP kinase,"[2]; HUVEC, 5 minutes, 2.6 nM VEGF",increased the amounts of phospho-MAP kinases
same,amount of activated (phosphorylated) p42/p44 MAP kinase,"[2]; HUVEC, 5 minutes, 2.6 nM VEGF, listed as histamine",effective; also recorded: produced effects
"Cc1cc(C)c(/C=C2\C(=O)Nc3ccccc32)[nH]1 [SU5416, reference compound]",effect on VEGF-stimulated increase in p120/p100 mobility,[1]; [8],blocked
same,effect on histamine-stimulated mobility shift in p120/p100,[1]; [9],did not block
same,effect on VEGF-stimulated activation of MAP kinase,[2]; [8],blocked
same,effect on histamine-stimulated activation of MAP kinase,[2]; [9],did not block
VEGF,focal contact protein tyrosine phosphorylation (PY20 immunoprecipitation),"[3]; 2.6 nM VEGF, 5 minutes",increased
same,β-catenin and p120/p100 in phosphotyrosine (PY20) immunoprecipitates,[3],did not reveal any hint
same,colocalization of altered phosphotyrosine staining with β-catenin staining,[4],did not colocalize
same,phosphotyrosine striations within the cells,[4],increased
same,vinculin staining,[4],appearance of vinculin-positive striations
same,time at which increase in mobility of p120 and p100 was observed,"[1]; HUVEC, 2.6 nM (100 ng/ml) VEGF",≤ 2 min
same,time for which increase in mobility of p120 and p100 was sustained,"[1]; HUVEC, 2.6 nM (100 ng/ml) VEGF",up to 30 minutes
same,effect on p120/p100 mobility after 60 minutes of incubation,"[1]; HUVEC, 2.6 nM VEGF, 60 minutes",less apparent
same,lowest concentration with observed effect on p120/p100 mobility,"[1]; HUVEC, 5 minutes",0.1 nM
same,p120/p100 electrophoretic mobility (band shift),"[1]; HUVEC, 5 minutes, 2.6 nM VEGF","migrate as faster, tighter bands; also recorded: effective; also recorded: increased electrophoretic mobility; also recorded: produced effects"
same,phosphotyrosine in p120 and p100,[5],not detected
same,amount of phosphoserine and phosphothreonine in p120 and p100,"[5]; 10 μM histamine, 200 nM PDB",decreased
same,kinetics of increase in activated MAP kinase relative to p120/p100 mobility,"[2]; HUVEC, 2.6 nM VEGF, time course",paralleled
same,sensitivity of increase in activated MAP kinase relative to p120/p100 mobility,"[2]; HUVEC, 5 minutes, indicated concentrations of VEGF",paralleled
same,amount of activated (phosphorylated) p42/p44 MAP kinase,"[2]; HUVEC, 5 minutes, 2.6 nM VEGF",clearly stimulated an increase; also recorded: effective; also recorded: produced effects
same,"association of catenins with cadherins (VE-cadherin, N-cadherin, α, β and γ catenin, p120, p100)",[6],no effect on association of any members of the complex
same,phosphate incorporation into 30 kDa and 17 kDa V8 cleavage products of p120 and p100,[7],substantially decreased
pervanadate [reference compound],β-catenin and p120/p100 in phosphotyrosine (PY20) immunoprecipitates,[3],detected
same,mobility of p120/p100,[1]; [10],did not affect the mobility
same,activation of MAP kinase,[2]; [10],did lead to activation of MAP kinase
B1,mobility shift in p120/p100,[1]; [11],failed to stimulate a mobility shift
same,activation of MAP kinase,[2]; [11],did not lead to activation of MAP kinase
